The values that follow come from patent publication US20110201818A1, “POLO-LIKE KINASE INHIBITORS” (TAKEDA PHARMACEUTICAL COMPANY LIMITED, priority 2007, published 2011).

T1 sequence (P53350 with tags, fused parts or gaps): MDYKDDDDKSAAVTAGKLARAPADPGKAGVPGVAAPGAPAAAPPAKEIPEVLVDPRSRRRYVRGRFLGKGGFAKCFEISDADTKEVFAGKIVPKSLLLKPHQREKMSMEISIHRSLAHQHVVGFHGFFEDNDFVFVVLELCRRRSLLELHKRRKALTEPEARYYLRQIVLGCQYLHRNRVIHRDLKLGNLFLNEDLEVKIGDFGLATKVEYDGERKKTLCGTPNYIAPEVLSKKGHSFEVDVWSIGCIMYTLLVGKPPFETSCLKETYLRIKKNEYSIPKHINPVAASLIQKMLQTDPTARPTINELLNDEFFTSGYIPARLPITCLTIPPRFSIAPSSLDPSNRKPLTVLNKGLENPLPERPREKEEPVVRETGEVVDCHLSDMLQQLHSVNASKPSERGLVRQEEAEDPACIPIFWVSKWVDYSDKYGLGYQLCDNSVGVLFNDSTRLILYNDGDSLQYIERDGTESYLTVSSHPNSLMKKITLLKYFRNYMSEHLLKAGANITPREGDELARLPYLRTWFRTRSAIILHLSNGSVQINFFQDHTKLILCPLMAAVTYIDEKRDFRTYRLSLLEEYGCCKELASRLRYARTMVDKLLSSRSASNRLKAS

This assay addresses T1, human PLK1 (Homo sapiens, UniProt P53350).
T1 construct: FLAG (DYKDDDDK) (N); made in house; host or cells: Sf21 insect cells, recombinant baculovirus (pFASTBAC1, Bac-to-Bac)
The assay can be described thus: PLK1 in vitro enzymatic activity assay (phosphorylation of alpha casein by recombinant PLK1). The format is biochemical. Conditions: recombinant FLAG-tagged PLK1, alpha casein substrate, 500 nmol/L ATP, 40 min at room temperature; read-out: pIC50 (PLK1) (converted). Here is the method:
PCR was performed using the vector as a template. […] After XbaI and XhoI digestion of the PCR product, the fragment was subcloned into pFASTBAC1 (Invitrogen, USA). Recombinant baculoviruses were prepared according to the procedure of the Bac-to-Bac baculovirus expression system (Invitrogen, USA). Sf21 cells were purchased from Invitrogen and grown in Sf-900 II SFM medium containing 10% fetal bovine serum, 50 μg/mL gentamicin and 0.1% pluronic F-68 (Invitrogen, USA) at 28° C. For preparation of PLK1 enzyme, Sf21 cells were infected with recombinant baculoviruses and cultured at 28° C. for 72 h.
The inhibition of PLK1 by the compounds was determined with the following assay that measures the phosphorylation of alpha casein by recombinant PLK1. Kinase reactions were performed at room temperature for 40 min in the kinase reaction buffer (25 mmol/L HEPES, pH 7.5, 10 mmol/L magnesium acetate, 1 mmol/L dithiothreitol) containing 50 ng PLK1 enzyme, 0.1 μCi [γ-^32P]ATP, 500 nmol/L ATP and 3 μg alpha casein (MP Biomedicals Inc., USA) in a final volume of 50 μL. The incubation was terminated by the addition of 10% trichloroacetic acid (Wako, Japan). Phosphorylated proteins were filtrated in GF/C filter plates (Packard, USA) with a Cell harvester (Packard, USA) and washed out free [γ-^32P]-ATP with 250 mmol/L phosphoric acid. Then, the plates were air dried for 60 min at 45° C., followed by the addition of 20 μL of MicroScint-O (Packard, USA). The radioactivity was counted by a Top-count scintillation counter (Packard, USA).
For the compound `COc1cc(C(=O)N[C@@H]2CCCC[C@@H]2O)ccc1Nc1ncc2c(n1)N(C1CCCCC1)CC(F)(F)C(=O)N2C` (racemic) [Compound 47, 4-(9-cyclohexyl-7,7-difluoro-5-methyl-6-oxo-6,7,8,9-tetrahydro-5H-pyrimido[4,5-b][1,4]diazepin-2-ylamino)-N-((cis)-2-hydroxycyclohexyl)-3-methoxybenzamide], the IC50 is at most 2 nM.
As for `COc1cc(C(=O)N[C@@H]2CCCC[C@H]2O)ccc1Nc1ncc2c(n1)N(C1CCCCC1)CC(F)(F)C(=O)N2C` (racemic) [Compound 48, 4-(9-cyclohexyl-7,7-difluoro-5-methyl-6-oxo-6,7,8,9-tetrahydro-5H-pyrimido[4,5-b][1,4]diazepin-2-ylamino)-N-((trans)-2-hydroxycyclohexyl)-3-methoxybenzamide], the IC50 was at most 2 nM.
Then `COc1cc(C(=O)NC2CC2)ccc1Nc1ncc2c(n1)N(C1CCCC1)CC(F)(F)C(=O)N2C` [Compound 2, 4-(9-cyclopentyl-7,7-difluoro-5-methyl-6-oxo-6,7,8,9-tetrahydro-5H-pyrimido[4,5-b][1,4]diazepin-2-ylamino)-N-cyclopropyl-3-methoxybenzamide], with over 2 nM; and `COc1cc(C(=O)NC2CCN(CCO)CC2)ccc1Nc1ncc2c(n1)N(C1CCCC1)CC(F)(F)C(=O)N2C` [Compound 5, 4-(9-cyclopentyl-7,7-difluoro-5-methyl-6-oxo-6,7,8,9-tetrahydro-5H-pyrimido[4,5-b][1,4]diazepin-2-ylamino)-N-(1-(2-hydroxyethyl)piperidin-4-yl)-3-methoxybenzamide], with at most 2 nM; and `CCN1CCC(NC(=O)c2ccc(Nc3ncc4c(n3)N(C3CCCC3)CC(F)(F)C(=O)N4C)c(OC)c2)CC1` [Compound 7, 4-(9-cyclopentyl-7,7-difluoro-5-methyl-6-oxo-6,7,8,9-tetrahydro-5H-pyrimido[4,5-b][1,4]diazepin-2-ylamino)-N-(1-ethylpiperidin-4-yl)-3-methoxybenzamide], with over 2 nM.
`COc1cc(C(=O)N[C@@H]2CCCNC2)ccc1Nc1ncc2c(n1)N(C1CCCC1)CC(F)(F)C(=O)N2C` [Compound 8, (R)-4-(9-cyclopentyl-7,7-difluoro-5-methyl-6-oxo-6,7,8,9-tetrahydro-5H-pyrimido[4,5-b][1,4]diazepin-2-ylamino)-3-methoxy-N-(piperidin-3-yl)benzamide]: the IC50 is at most 2 nM.
Turning to `COc1cc(C(=O)N[C@H]2CCCNC2)ccc1Nc1ncc2c(n1)N(C1CCCC1)CC(F)(F)C(=O)N2C` [Compound 9, (S)-4-(9-cyclopentyl-7,7-difluoro-5-methyl-6-oxo-6,7,8,9-tetrahydro-5H-pyrimido[4,5-b][1,4]diazepin-2-ylamino)-3-methoxy-N-(piperidin-3-yl)benzamide], the IC50 is at most 2 nM.
Next, `COc1cc(C(=O)NC2CCNCC2)ccc1Nc1ncc2c(n1)N(C1CCCC1)CC(F)(F)C(=O)N2C` [Compound 10, 4-(9-cyclopentyl-7,7-difluoro-5-methyl-6-oxo-6,7,8,9-tetrahydro-5H-pyrimido[4,5-b][1,4]diazepin-2-ylamino)-3-methoxy-N-(piperidin-4-yl)benzamide]: at most 2 nM; `COc1cc(C(=O)NC2CCN(C(=O)CN(C)C)CC2)ccc1Nc1ncc2c(n1)N(C1CCCC1)CC(F)(F)C(=O)N2C` [Compound 11, 4-(9-cyclopentyl-7,7-difluoro-5-methyl-6-oxo-6,7,8,9-tetrahydro-5H-pyrimido[4,5-b][1,4]diazepin-2-ylamino)-N-(1-(2-(dimethylamino)acetyl)piperidin-4-yl)-3-methoxybenzamide]: at most 2 nM; `COc1cc(C(=O)NC2CCN(C(=O)CN3CCCC3)CC2)ccc1Nc1ncc2c(n1)N(C1CCCC1)CC(F)(F)C(=O)N2C` [Compound 12, 4-(9-cyclopentyl-7,7-difluoro-5-methyl-6-oxo-6,7,8,9-tetrahydro-5H-pyrimido[4,5-b][1,4]diazepin-2-ylamino)-3-methoxy-N-(1-(2-(pyrrolidin-1-yl)acetyl)piperidin-4-yl)benzamide]: over 2 nM.
Take `COc1cc(C(=O)NC2CCCNCC2)ccc1Nc1ncc2c(n1)N(C1CCCC1)CC(F)(F)C(=O)N2C` (centres unmarked) [Compound 14, N-(Azepan-4-yl)-4-(9-cyclopentyl-7,7-difluoro-5-methyl-6-oxo-6,7,8,9-tetrahydro-5H-pyrimido[4,5-b][1,4]diazepin-2-ylamino)-3-methoxybenzamide]: the IC50 is at most 2 nM.
For `COc1cc(C(=O)NC2CCCN(C)CC2)ccc1Nc1ncc2c(n1)N(C1CCCC1)CC(F)(F)C(=O)N2C` (centres unmarked) [Compound 15, 4-(9-cyclopentyl-7,7-difluoro-5-methyl-6-oxo-6,7,8,9-tetrahydro-5H-pyrimido[4,5-b][1,4]diazepin-2-ylamino)-3-methoxy-N-(1-methylazepan-4-yl)benzamide], the IC50 was at most 2 nM.
Next, `CN(C)CCOc1ccc(Nc2ncc3c(n2)N(C2CCCC2)CC(F)(F)C(=O)N3C)cc1` [Compound 17, 9-cyclopentyl-2-(4-(2-(dimethylamino)ethoxy)phenylamino)-7,7-difluoro-5-methyl-8,9-dihydro-5H-pyrimido[4,5-b][1,4]diazepin-6(7H)-one]: over 2 nM.
In the case of `CN1C(=O)C(F)(F)CN(C2CCCC2)c2nc(Nc3ccc4c(c3)NC(=O)CO4)ncc21` [Compound 18, 6-(9-cyclopentyl-7,7-difluoro-5-methyl-6-oxo-6,7,8,9-tetrahydro-5H-pyrimido[4,5-b][1,4]diazepin-2-ylamino)-2H-benzo[b][1,4]oxazin-3(4H)-one], the IC50 is over 2 nM.
`CN1C(=O)C(F)(F)CN(C2CCCC2)c2nc(Nc3ccc4c(c3)NC(=O)C4)ncc21` [Compound 19, 9-cyclopentyl-7,7-difluoro-5-methyl-2-(2-oxoindolin-6-ylamino)-8,9-dihydro-5H-pyrimido[4,5-b][1,4]diazepin-6(7H)-one]: the IC50 is over 2 nM.
With `CN1C(=O)C(F)(F)CN(C2CCCC2)c2nc(Nc3ccc4[nH]ccc4c3)ncc21` [Compound 20, 2-(1H-Indol-5-ylamino)-9-cyclopentyl-7,7-difluoro-5-methyl-8,9-dihydro-5H-pyrimido[4,5-b][1,4]diazepin-6(7H)-one], the IC50 is over 2 nM.
Next, `CN1C(=O)C(F)(F)CN(C2CCCC2)c2nc(Nc3ccc4[nH]cc(C5=CCNCC5)c4c3)ncc21` [Compound 21, 9-Cyclopentyl-7,7-difluoro-5-methyl-2-(3-(1,2,3,6-tetrahydropyridin-4-yl)-1H-indol-5-ylamino)-8,9-dihydro-5H-pyrimido[4,5-b][1,4]diazepin-6(7H)-one]: over 2 nM; `CN1CCC(NC(=O)c2ccc(Nc3ncc4c(n3)N(C3CCCC3)CC(F)(F)C(=O)N4C)c(F)c2)CC1` [Compound 22, 4-(9-Cyclopentyl-7,7-difluoro-5-methyl-6-oxo-6,7,8,9-tetrahydro-5H-pyrimido[4,5-b][1,4]diazepin-2-ylamino)-3-fluoro-N-(1-methylpiperidin-4-yl)benzamide]: at most 2 nM; `CN1CCC(NC(=O)c2ccc(Nc3ncc4c(n3)N(C3CCCC3)CC(F)(F)C(=O)N4C)c(Cl)c2)CC1` [Compound 24, 3-Chloro-4-(9-cyclopentyl-7,7-difluoro-5-methyl-6-oxo-6,7,8,9-tetrahydro-5H-pyrimido[4,5-b][1,4]diazepin-2-ylamino)-N-(1-methylpiperidin-4-yl)benzamide]: over 2 nM.
In the case of `CN1CCC(NC(=O)c2ccc(Nc3ncc4c(n3)N(C3CCCC3)CC(F)(F)C(=O)N4C)c(OC(F)(F)F)c2)CC1` [Compound 25, 4-(9-Cyclopentyl-7,7-difluoro-5-methyl-6-oxo-6,7,8,9-tetrahydro-5H-pyrimido[4,5-b][1,4]diazepin-2-ylamino)-N-(1-methylpiperidin-4-yl)-3-(trifluoromethoxy)-benzamide], the IC50 was over 2 nM.
Regarding `Cc1cc(C(=O)NC2CCN(C)CC2)ccc1Nc1ncc2c(n1)N(C1CCCC1)CC(F)(F)C(=O)N2C` [Compound 26, 4-(9-Cyclopentyl-7,7-difluoro-5-methyl-6-oxo-6,7,8,9-tetrahydro-5H-pyrimido[4,5-b][1,4]diazepin-2-ylamino)-3-methyl-N-(1-methylpiperidin-4-yl)benzamide], the IC50 is over 2 nM.
With `CCc1cc(C(=O)NC2CCN(C)CC2)ccc1Nc1ncc2c(n1)N(C1CCCC1)CC(F)(F)C(=O)N2C` [Compound 27, 4-(9-Cyclopentyl-7,7-difluoro-5-methyl-6-oxo-6,7,8,9-tetrahydro-5H-pyrimido[4,5-b][1,4]diazepin-2-ylamino)-3-ethyl-N-(1-methylpiperidin-4-yl)benzamide], the IC50 is at most 2 nM.
As for `CCOc1cc(C(=O)NC2CCN(C)CC2)ccc1Nc1ncc2c(n1)N(C1CCCC1)CC(F)(F)C(=O)N2C` [Compound 29, 4-(9-Cyclopentyl-7,7-difluoro-5-methyl-6-oxo-6,7,8,9-tetrahydro-5H-pyrimido[4,5-b][1,4]diazepin-2-ylamino)-3-ethoxy-N-(1-methylpiperidin-4-yl)benzamide], the IC50 is over 2 nM.
